Experimental data: PubChem BioAssay (NCI)
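GI50 marks 50% less growth. TGI marks complete inhibition of growth.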

How the values were obtained:
Assay in all cases: growth of human tumour cells (NCI), 384-well format
[1] = tested on: MALME-3M melanoma
[2] = tested on: SK-MEL-5 melanoma
[3] = tested on: SN12C renal
[4] = tested on: BT-549 breast
[5] = tested on: COLO 205 colon
[6] = tested on: RXF 393 renal
[7] = tested on: OVCAR-5 ovarian
[8] = tested on: SK-OV-3 ovarian
[9] = tested on: A498 renal
[10] = tested on: LOX IMVI melanoma
[11] = tested on: SNB-75 CNS
[12] = tested on: TK-10 renal
[13] = tested on: T-47D breast
[14] = tested on: MDA-MB-468 breast
[15] = tested on: SNB-19 CNS
[16] = tested on: IGROV1 ovarian
[17] = tested on: SF-539 CNS
[18] = tested on: UO-31 renal
[19] = tested on: MOLT-4 leukemia
[20] = tested on: ACHN renal
[21] = tested on: RPMI-8226 leukemia
[22] = tested on: UACC-257 melanoma
[23] = tested on: HL-60(TB) leukemia
[24] = tested on: A549 NSCLC
[25] = tested on: SF-295 CNS
[26] = tested on: NCI-H460 NSCLC
[27] = tested on: SF-268 CNS
[28] = tested on: CCRF-CEM leukemia
[29] = tested on: NCI-H522 lung
[30] = tested on: DU-145 prostate
[31] = tested on: SR leukemia
[32] = tested on: CAKI-1 renal
[33] = tested on: HOP-92 NSCLC
[34] = tested on: UACC-62 melanoma
[35] = tested on: MDA-MB-231 breast
[36] = tested on: U251 glioblastoma
[37] = tested on: KM12 colon
[38] = tested on: SK-MEL-28 melanoma
[39] = tested on: MDA-MB-435 melanoma
[40] = tested on: M14 melanoma
[41] = tested on: HOP-62 NSCLC
[42] = tested on: OVCAR-3 ovarian
[43] = tested on: 786-0 renal
[44] = tested on: NCI-H226 lung
[45] = tested on: NCI-H322M lung
[46] = tested on: HCT-15 colon
[47] = tested on: PC-3 prostate
[48] = tested on: HT29 colon
[49] = tested on: HS 578T breast
[50] = tested on: EKVX NSCLC
[51] = tested on: HCT-116 colon
[52] = tested on: SW-620 colon
[53] = tested on: MCF7 breast
[54] = tested on: OVCAR-4 ovarian
[55] = tested on: NCI-H23 lung
[56] = tested on: OVCAR-8 ovarian

Work on `COc1cc2c(cc1O)CCN[C@]21CS[C@@H]2c3c(OC(C)=O)c(C)c4c(c3[C@H](COC1=O)N1[C@@H]2[C@H]2c3c(cc(C)c(OC)c3O)C[C@@H]([C@@H]1O)N2C)OCO4` yielded a GI50 [1] of 0.136 nM, a TGI [1] of 0.37 nM and a GI50 [2] of 0.0992 nM. For the same molecule, the TGI [2] was 0.345 nM, the GI50 [3] was 0.133 nM and the TGI [3] was 0.715 nM. It also gave a GI50 [4] of 0.0545 nM, a TGI [4] of 0.124 nM and a GI50 [5] of 0.433 nM. For the same molecule, the TGI [5] was 0.882 nM, the GI50 [6] was 0.0747 nM and the TGI [6] was 0.209 nM. For the same molecule, the GI50 [7] was 0.983 nM, the TGI [7] was 9.36 nM and the GI50 [8] was 2.22 nM. The TGI [8] was 7.34 nM, the GI50 [9] was 1.18 nM and the TGI [9] was 2.61 nM. The GI50 [10] was 0.0744 nM, the TGI [10] was 0.234 nM and the GI50 [11] was 0.0952 nM. For the same molecule, the TGI [11] was 0.329 nM, the GI50 [12] was 2.48 nM and the TGI [12] was 6 nM. For the same molecule, the GI50 [13] was 0.482 nM, the TGI [13] was 2.33 nM and the GI50 [14] was 0.0656 nM. For the same molecule, the TGI [14] was 0.147 nM, the GI50 [15] was 0.84 nM and the GI50 [16] was 0.885 nM. The TGI [16] was 8.12 nM, the GI50 [17] was 0.0765 nM and the TGI [17] was 0.185 nM. It also gave a GI50 [18] of 0.514 nM, a TGI [18] of 0.962 nM and a GI50 [19] of 0.0228 nM. For the same molecule, the TGI [19] was 0.0638 nM, the GI50 [20] was 0.685 nM and the TGI [20] was 2.24 nM. For the same molecule, the GI50 [21] was 0.0686 nM, the TGI [21] was 0.153 nM and the GI50 [22] was 0.546 nM. The TGI [22] was 0.987 nM, the GI50 [23] was 0.0567 nM and the TGI [23] was 0.105 nM. It also gave a GI50 [24] of 0.868 nM, a TGI [24] of 2.37 nM and a GI50 [25] of 0.0877 nM. It also gave a TGI [25] of 0.299 nM, a GI50 [26] of 0.112 nM and a TGI [26] of 0.454 nM. It also gave a GI50 [27] of 0.121 nM, a TGI [27] of 0.542 nM and a GI50 [28] of 0.0203 nM. For the same molecule, the TGI [28] was 0.0389 nM, the GI50 [29] was 0.11 nM and the TGI [29] was 0.447 nM. For the same molecule, the GI50 [30] was 0.31 nM, the TGI [30] was 0.84 nM and the GI50 [31] was 0.0313 nM. The TGI [31] was 0.0728 nM, the GI50 [32] was 0.497 nM and the TGI [32] was 4.25 nM. For the same molecule, the GI50 [33] was 0.0211 nM, the TGI [33] was 0.0954 nM and the GI50 [34] was 0.099 nM. It also gave a TGI [34] of 0.371 nM, a GI50 [35] of 1 nM and a TGI [35] of 2.56 nM. For the same molecule, the GI50 [36] was 0.17 nM, the TGI [36] was 0.842 nM and the GI50 [37] was 1.4 nM. It also gave a TGI [37] of 3.58 nM, a GI50 [38] of 0.459 nM and a TGI [38] of 0.888 nM. It also gave a GI50 [39] of 0.614 nM, a TGI [39] of 1.09 nM and a GI50 [40] of 0.0865 nM. It also gave a TGI [40] of 0.237 nM, a GI50 [41] of 0.0657 nM and a TGI [41] of 0.177 nM. It also gave a GI50 [42] of 0.227 nM, a TGI [42] of 0.698 nM and a GI50 [43] of 0.0975 nM. For the same molecule, the TGI [43] was 0.568 nM, the GI50 [44] was 0.0901 nM and the TGI [44] was 0.359 nM. For the same molecule, the GI50 [45] was 0.481 nM, the TGI [45] was 1.03 nM and the GI50 [46] was 0.595 nM. For the same molecule, the TGI [46] was 5.24 nM, the GI50 [47] was 0.396 nM and the TGI [47] was 1.54 nM. It also gave a GI50 [48] of 0.117 nM, a TGI [48] of 0.245 nM and a GI50 [49] of 0.175 nM. For the same molecule, the TGI [49] was 0.555 nM, the GI50 [50] was 0.583 nM and the TGI [50] was 1.28 nM. The GI50 [51] was 0.653 nM, the GI50 [52] was 1.61 nM and the TGI [52] was 3.49 nM. It also gave a GI50 [53] of 0.447 nM, a TGI [53] of 5.54 nM and a GI50 [54] of 2.77 nM. The TGI [54] was 5.98 nM, the GI50 [55] was 0.0949 nM and the TGI [55] was 0.309 nM. The GI50 [56] was 0.169 nM and the TGI [56] was 0.555 nM.
